The test system of assay [1] is Human immunodeficiency virus 1. Kind of assay: Antiviral activity against HIV-1 (human immunodeficiency virus type 1). It is filed as functional, organism-based.
Assay [2] can be described thus: Cytotoxicity against HIV-1 (human immunodeficiency virus type 1). Particulars: Human immunodeficiency virus 1. It counts as functional.
The nature of assay [3]: Cytotoxicity against HSV-1 (herpes simplex virus). It is filed as functional. As to conditions: Human alphaherpesvirus 1.
In the next assay the test system is Human alphaherpesvirus 1. Kind of assay: Antiviral activity against HSV-1 (herpes simplex virus). It is filed as functional, organism-based.

One may read the EC50 as the concentration at which the effect is half-maximal. As usually defined, the CC50 is the concentration that lowers cell viability or growth by half. The low end stands for greater toxicity to the cells, the high end for lower toxicity to the cells.

On to `Cc1cn([C@H]2C[C@@H]3OCC[C@]3(CO)O2)c(=O)[nH]c1=O`, for which the EC50 (in assay [1]; in the assay on Human alphaherpesvirus 1) was more than 100 µM throughout. Besides, the CC50 in assay [2] and in assay [3] was more than 100 µM each time.
For the compound `C#C[C@]1(CO)O[C@@H](n2cc(C)c(=O)[nH]c2=O)C[C@@H]1O`, the EC50 in assay [1] turned out to be 0.83 µM; in the assay with Human alphaherpesvirus 1 it was 6.8 µM. For the same compound, the CC50 in assay [2] and in assay [3] was more than 100 µM each time.
As for `C=C[C@]1(CO)O[C@@H](n2cc(C)c(=O)[nH]c2=O)C[C@@H]1O`, the results for the EC50 (in assay [1]; in the assay with Human alphaherpesvirus 1) were 6.1 µM and 1.9 µM, respectively. The CC50 in assay [2] and in assay [3] was more than 100 µM throughout.
In the case of `Nc1nc2c(ncn2COCCO)c(=O)[nH]1` [ACYCLOVIR], the CC50 in assay [3] is more than 100 µM.
`CC[C@]1(CO)O[C@@H](n2cc(C)c(=O)[nH]c2=O)C[C@@H]1O`: the EC50 in assay [1] was 16.1 µM; in the assay on Human alphaherpesvirus 1, 7.4 µM. The CC50 in assay [2] and in assay [3] was more than 100 µM throughout.
As for `Cc1cn([C@H]2C[C@H](O)[C@](CO)(CCO)O2)c(=O)[nH]c1=O`, the EC50 is more than 4.7 µM in assay [1] and more than 100 µM with Human alphaherpesvirus 1. Besides, the CC50 in assay [2] was 4.7 µM; in assay [3], more than 100 µM.
Compound `Cc1cn([C@H]2C[C@H](N=[N+]=[N-])[C@@H](CO)O2)c(=O)[nH]c1=O` [ZIDOVUDINE] showed an EC50 in assay [1] of 0.0017 µM. For the same compound, the CC50 in assay [2] worked out at 16.5 µM.

(Values after ChEMBL document CHEMBL1132504, “Nucleosides and nucleotides. 183. Synthesis of 4'alpha-branched thymidines as a new type of antiviral agent” (Bioorg Med Chem Lett, 1999).)
